Structures are written as SMILES. Bounds are passed on as bounds.

Among the data in US7507727B2, “Substituted quinobenzoxazine analogs and methods of using thereof” (Cylene Pharmaceuticals, Inc., priority 2003, dated 2009) are IC50 values, retold here.

The target in one assay is c-Myc template DNA (c-myc quadruplex). The experiment in a line: Quadruplex binding / stop assay (Taq polymerase arrest, capillary electrophoresis). The note with it: read-out: S DATA; Table 1D, stop assay data.
With `O=C(NCCCN1CCOCC1)c1cn2c3c(c(NCCN4CCCC4)ccc3c1=O)Oc1cc3ccccc3cc1-2` [compound 1518], the IC50 is 1.75 µM.

As for `CN1CCCC1CCNC(=O)c1cn2c3c(c(SCCc4ccccn4)c(F)cc3c1=O)Oc1cc3ccccc3cc1-2` (stereo not drawn) [compound 1781], the IC50 came out at 5.5 µM. As to `O=C(c1cn2c3c(c(NCCN4CCCC4)c(F)cc3c1=O)Oc1ccccc1-2)N1CCC(N2CCCC2)CC1` [compound 1601], the IC50 is over 15 µM. Turning to `CN1CCCC1CCNC(=O)c1cn2c3c(c(NC(=O)C4CNCCN4)c(F)cc3c1=O)Oc1cc3ccccc3cc1-2` (stereo not drawn) [compound 1505], the IC50 is over 15 µM. For `CC1(C)CC(NC(=O)c2cn3c4c(c(N5CCC(NC(=O)OC(C)(C)C)C5)ccc4c2=O)Oc2cc4ccccc4cc2-3)CC(C)(C)N1` (stereo not drawn) [compound 1537], the IC50 amounted to 1.75 µM.

`NC1CCN(C(=O)c2cn3c4c(c(N5CCC(N)C5)c(F)cc4c2=O)Oc2ccccc2-3)C1` (stereo not drawn) [compound 1622]: the IC50 was over 15 µM.

In the case of `N=C(N)NCCCCNC(=O)c1cn2c3c(c(N4CC5CCCNC5C4)c(F)cc3c1=O)Oc1cc3ccccc3cc1-2` (stereo not drawn) [compound 1648], the IC50 was found to be 1 µM.

For the molecule `NCCCCNC(=O)c1cn2c3c(c(NCCN4CCCC4)c(F)cc3c1=O)Oc1ccccc1-2` [compound 1599], the IC50 is over 15 µM.

`CC(C)C(=O)N1CCN(c2c(F)cc3c(=O)c(C(=O)NCCN4CCCC4)cn4c3c2Oc2cc(Cl)ccc2-4)CC1` [compound 1823]: the IC50 is 10 µM.

For `CN(C)CCCCNC(=O)c1cn2c3c(c(NCCCN4CCOCC4)ccc3c1=O)Oc1cc3ccccc3cc1-2` [compound 1532], the IC50 was over 15 µM. As to `CCCCOCCCNc1c(F)cc2c(=O)c(C(=O)NCCC3CCCN3C)cn3c2c1Oc1cc2ccccc2cc1-3` (stereo not drawn) [compound 1659], the IC50 amounted to 1.75 µM.

With `O=C(NCCN1CCCC1)c1cn2c3c(c(N4CCN(C(=O)C(F)(F)F)CC4)c(F)cc3c1=O)Oc1cc(Cl)ccc1-2` [compound 1821], the IC50 turned out to be 10 µM. Still for that read-out and setting: the figure for `CN1CCCC1CCNC(=O)c1cn2c3c(c(NCc4ccoc4)c(F)cc3c1=O)Oc1cc3ccccc3cc1-2` (stereo not drawn) [compound 1752] is over 15 µM. Turning to `CN1CCN(CCCNc2c(F)cc3c(=O)c(C(=O)NCCN4CCOCC4)cn4c3c2Oc2ccccc2-4)CC1` [compound 1573], the IC50 is over 15 µM. The same measure, in the same setting: in the case of `CN(C)CC(C)(C)CNC(=O)c1cn2c3c(c(NCCCN4CCOCC4)c(F)cc3c1=O)Oc1cc3ccccc3cc1-2` [compound 1652] it was 1 µM; in that of `CC(C)N1CCN(c2c(F)cc3c(=O)c(C(=O)NC4CC(C)(C)NC(C)(C)C4)cn4c3c2Oc2ccccc2-4)CC1` [compound 1571], over 15 µM; in that of `NC1CCN(c2c(F)cc3c(=O)c(C(=O)NCC(O)c4ccccc4)cn4c3c2Oc2cc3ccccc3cc2-4)C1` (stereo not drawn) [compound 1703], over 15 µM. Still for that read-out and setting: the figure for `CCN(CC)CCCC(C)NC(=O)c1cn2c3c(c(N4CCC(c5cnccn5)C4)ccc3c1=O)Oc1ccccc1-2` (stereo not drawn) [compound 1721] is 3 µM. `O=C(c1cn2c3c(c(NCCN4CCOCC4)c(F)cc3c1=O)Oc1ccccc1-2)N1CCC(N2CCCC2)CC1` [compound 1613]: the IC50 was over 15 µM. With `CC(C)N1CCN(c2c(F)cc3c(=O)c(C(=O)NCCN4CCCC4)cn4c3c2Oc2cc(Cl)ccc2-4)CC1` [compound 1797], the IC50 was determined as 8 µM. With `CN1CCN(CCCNc2c(F)cc3c(=O)c(C(=O)NCCN4CCCC4)cn4c3c2Oc2ccccc2-4)CC1` [compound 1577], the IC50 is over 15 µM. On the same count and under the same terms, the figure for `CN(C)CCCNc1c(F)cc2c(=O)c(C(=O)NCCC3CCCN3C)cn3c2c1Oc1cc2ccccc2cc1-3` (stereo not drawn) [compound 1500] is 0.75 µM. As for `CN(C)CCCCNc1ccc2c(=O)c(C(=O)NCCC3CCCN3C)cn3c2c1Oc1cc2ccccc2cc1-3` (stereo not drawn) [compound 1541], the IC50 turned out to be 1.75 µM. Consider `O=C(NCCN1CCCC1)c1cn2c3c(c(NCCN4CCCC4)c(F)cc3c1=O)Oc1ccccc1-2` [compound 1597], for which the IC50 was over 15 µM. Regarding `CN1CCCC1CCNC(=O)c1cn2c3c(c(SCCc4cnccn4)c(F)cc3c1=O)Oc1c-2ccc2ccccc12` (stereo not drawn) [compound 1780], the IC50 turned out to be 5.2 µM. For the molecule `CN(C)CCCCNc1ccc2c(=O)c(C(=O)NCCCN3CCOCC3)cn3c2c1Oc1cc2ccccc2cc1-3` [compound 1542], the IC50 was over 15 µM. Same read-out and setting: the figure for `CCN(CC)CCCCNC(=O)c1cn2c3c(c(N4CCC(c5cnccn5)C4)c(F)cc3c1=O)Oc1ccc(Cl)cc1-2` (stereo not drawn) [compound 1802] is 4 µM. Same read-out and setting: in the case of `CN1CCN(CCCNC(=O)c2cn3c4c(c(N5CCC(N)C5)c(F)cc4c2=O)Oc2ccccc2-3)CC1` (stereo not drawn) [compound 1621] it was 0.75 µM; in that of `O=C(NCCN1CCOCC1)c1cn2c3c(c(N4CCC(c5cnccn5)C4)c(F)cc3c1=O)Oc1cc(Cl)ccc1-2` (stereo not drawn) [compound 1790], over 15 µM. Same read-out and setting: in the case of `CN1CCCC1CCNC(=O)c1cn2c3c(c(SCCc4cnccn4)c(SCCc4cnccn4)cc3c1=O)Oc1cc3ccccc3cc1-2` (stereo not drawn) [compound 1774] it was 5.8 µM; in that of `CC(C)N1CCN(c2c(F)cc3c(=O)c(C(=O)NCCCN4CCN(C)CC4)cn4c3c2Oc2ccccc2-4)CC1` [compound 1563], over 15 µM; in that of `CN1CCCC1CCNC(=O)c1cn2c3c(c(N4CCC(NC(=O)OC(C)(C)C)C4)c(F)cc3c1=O)Oc1ccccc1-2` (stereo not drawn) [compound 1587], over 15 µM.

The same assay, now with this note: read-out: Stop Data c-Myc μM; concentration at which 50% of the DNA was arrested (arrested:full-length 1:1).
`N[C@@H]1CCN(c2c(F)cc3c(=O)c(C(=O)NCCN4CCOCC4)cn4c3c2Oc2c-4ccc3ccccc23)C1` [compound 77]: the IC50 amounted to 2.5 µM. As for `CC1CCCN(CCCNC(=O)c2cn3c4c(c(N5CCC(N)C5)c(F)cc4c2=O)Oc2cc4ccccc4cc2-3)C1` (stereo not drawn) [compound 301], the IC50 is 1.75 µM. The same measure, in the same setting: the figure for `CN(C)CCCCNC(=O)c1cn2c3c(c(NCCC4CCCN4C)ccc3c1=O)Oc1cc3ccccc3cc1-2` (stereo not drawn) [compound 450] is 0.75 µM; for `CN1CCCC1CCNC(=O)c1cn2c3c(c(N4CCC(c5cccnc5)C4)c(F)cc3c1=O)Oc1cc3ccccc3cc1-2` (stereo not drawn) [compound 443] it is 0.75 µM. As for `CC(CNc1c(F)cc2c(=O)c(C(=O)NCCC3CCCN3C)cn3c2c1Oc1cc2ccccc2cc1-3)c1ccccc1` (stereo not drawn) [compound 285], the IC50 worked out at 1.75 µM. As for `CC(O)CNc1c(F)cc2c(=O)c(C(=O)NCCC3CCCN3C)cn3c2c1Oc1cc2ccccc2cc1-3` (stereo not drawn) [compound 283], the IC50 came out at 1.75 µM. For the molecule `CN(C)CCCCNc1c(F)cc2c(=O)c(C(=O)O)cn3c2c1Oc1c-3ccc2ccccc12` [compound 4], the IC50 was 1.76 µM. Same read-out and setting: in the case of `N=C(N)NCCCNC(=O)c1cn2c3c(c(N4CC5CCCNC5C4)c(F)cc3c1=O)Oc1cc3ccccc3cc1-2` (stereo not drawn) [compound 327] it was 1 µM. Turning to `COc1cccc(CCNc2c(F)cc3c(=O)c(C(=O)NCCC4CCCN4C)cn4c3c2Oc2cc3ccccc3cc2-4)c1` (stereo not drawn) [compound 289], the IC50 worked out at 1.75 µM.

For the molecule `O=C(O)c1cn2c3c(c(NCCCN4CCOCC4)c(F)cc3c1=O)Oc1cc3c(cc1-2)-c1ccccc1C3` [compound 6], the IC50 was 1.75 µM. Consider `CN1CCN(C(=O)c2cn3c4c(c(N5CC[C@@H](NC(=O)CNCCC6CCCN6C)C5)c(F)cc4c2=O)Oc2cc4c(cc2-3)oc2ccccc24)CC1` (stereo partly drawn) [compound 411], for which the IC50 was 0.75 µM. Same read-out and setting: the figure for `CN(C)/C=N/C1CCN(c2c(F)cc3c(=O)c(C(=O)NCCC4CCCN4C)cn4c3c2Oc2cc3ccccc3cc2-4)C1` (stereo not drawn) [compound 98] is 2.5 µM; for `O=C(CCN1CCCC1)Nc1c(F)cc2c(=O)c(C(=O)NCCN3CCCC3)cn3c2c1Oc1cc2ccccc2cc1-3` [compound 90] it is 2.5 µM; for `CC(C)(C)OC(=O)NC1CCN(c2c(F)cc3c(=O)c(C(=O)NCc4nc5ccccc5[nH]4)cn4c3c2Oc2cc3ccccc3cc2-4)C1` (stereo not drawn) [compound 184] it is 1.75 µM. Still for that read-out and setting: in the case of `O=C(NCCN1CCCC1)c1cn2c3c(c(NCCCN4CCOCC4)ccc3c1=O)Oc1cc3ccccc3cc1-2` [compound 272] it was 1.75 µM.

In the case of `O=C(NCCCn1ccnc1)c1cn2c3c(c(NCCN4CCCC4)c(F)cc3c1=O)Oc1c-2ccc2ccccc12` [compound 140], the IC50 was found to be 1.75 µM. With `CN1CCCC1CCNC(=O)c1cn2c3c(c(NCCN4CCCC4)c(F)cc3c1=O)Oc1cc3ccccc3cc1-2` (stereo not drawn) [compound 73], the IC50 was found to be 2.5 µM. Same read-out and setting: the figure for `N=C(N)NCCCCNC(=O)c1cn2c3c(c(NCCN4CCCC4)c(F)cc3c1=O)Oc1cc3ccccc3cc1-2` [compound 334] is 1 µM.

Turning to `CN(C)CCCCNC(=O)c1cn2c3cc4oc5cc([N+](=O)[O-])ccc5[nH]c4cc3oc3c(NCCC4CCCN4C)c(F)cc(c1=O)c32` (stereo not drawn) [compound 585], the IC50 was determined as 0.18 µM. The same measure, in the same setting: in the case of `CC(C)(C)OC(=O)N[C@@H]1CCN(c2c(F)cc3c(=O)c(C(=O)NCCCN4CCOCC4)cn4c3c2Oc2cc3ccccc3cc2-4)C1` [compound 62] it was 2.5 µM. Same read-out and setting: the figure for `CN1CCCC1CCNc1c(F)cc2c(=O)c(C(=O)N3CC[C@H](NC(=O)OC(C)(C)C)C3)cn3c4cc5c(cc4oc1c23)c(=O)c1ccccc15` (stereo partly drawn) [compound 206] is 1.75 µM; for `Nc1c(F)c(NCCCN2CCOCC2)c2c3c1c(=O)c(C(=O)O)cn3-c1cc3ccccc3cc1O2` [compound 14] it is 1.75 µM; for `CN1CCCC1CCNC(=O)c1cn2c3c(c(NCC(O)CO)c(F)cc3c1=O)Oc1cc3ccccc3cc1-2` (stereo not drawn) [compound 292] it is 1.75 µM.

As for `CN1CCCC1CCNc1c(F)cc2c(=O)c(C(=O)NCCN3CCCC3)cn3c2c1Oc1cc2c(cc1-3)oc1ccccc12` (stereo not drawn) [compound 87], the IC50 was 2.5 µM. The same measure, in the same setting: the figure for `CN(C)CCCCNC(=O)c1cn2c3c(c(N4CC[C@@H](N)C4)c(F)cc3c1=O)Oc1cc3ccccc3cc1-2` [compound 567] is 0.25 µM; for `N=C(N)NCCNC(=O)c1cn2c3c(c(N4CC5CCCNC5C4)c(F)cc3c1=O)Oc1cc3ccccc3cc1-2` (stereo not drawn) [compound 471] it is 0.64 µM.

For the molecule `CN1CCN(CCCNc2c(F)cc3c(=O)c(C(=O)O)cn4c5cc6oc7cc(N)ccc7[nH]c6cc5oc2c34)CC1` [compound 22], the IC50 was determined as 0.75 µM. With `CN1CCCC1CCNC(=O)c1cn2c3c(c(N(C)C4CCNC4)c(F)cc3c1=O)Oc1cc3ccccc3cc1-2` (stereo not drawn) [compound 439], the IC50 worked out at 0.75 µM.
